Measurements taken from patent US20040067998A1, “Antifungal and/or antiparasitic pharmaceutical composition and novel indole derivatives as active principle of such a composition” (priority 2003, published 2004).
Values after ≈ are worked out from the molar mass of the structure shown. Values joined by “and” are separate entries in the source; they are usually repeats but may differ in a detail not shown here. Identical values can stand only once. Like-named read-outs stand apart in the source and are kept apart here.

How the values were obtained:
[1] = tested on: Candida albicans (strain n° CA980001); experiment: Antifungal activity on a clinical strain of Candida albicans (MTT colorimetric microplate test); format: cell-based; settings: for MIC / CMI or CI80 Candida albicans (CA980001): strain CA980001; for MIC: read-out: CMI or CI80 Candida albicans (CA980001)
[2] = tested on: Aspergillus fumigatus (strain n°AF 980003); experiment: Antifungal activity on a clinical strain of Aspergillus fumigatus (Alamar Blue microplate test); format: cell-based; settings: for MIC / CMI or CI80 Aspergillus fumigatus (AF980003): strain AF980003; for MIC: read-out: CMI or CI80 Aspergillus fumigatus (AF980003); for activity against Aspergillus fumigatus (in words): summary of Tables 27 to 40
[3] = tested on: promastigote stage of Leishmania mexicana; experiment: Antiparasitic activity on the promastigote form of Leishmania (MTT); format: cell-based; settings: for IC50: read-out: CI50 Leishmania mexicana Promastigotes
[4] = tested on: Candida albicans (CA98001); experiment: Antifungal activity in vivo on a model of disseminated candidiasis; design: species or system female Swiss mice; settings: mouse, in vivo
[5] = Candida albicans, 24 h at 37° C., MTT
[6] = promastigotes, 36 h at 26° C., MTT

Row | Structure (SMILES) | CMI or CI80 Candida albicans (CA980001) ([1]; 24 h at 37° C., MTT) | CMI or CI80 Aspergillus fumigatus (AF980003) ([2]; Alamar Blue) | MIC ([1]; 24 h at 37° C., MTT) | MIC ([2]; Alamar Blue) | CI50 Leishmania mexicana Promastigotes [3] | IC50 [3] | other results
1 | Fc1ccc(C(C(n2ccc3ccccc32)n2nnc3ccccc32)n2ccnc2)cc1 (stereo not drawn) [Cpsé 83, 1-[2-(4-Fluorophenyl)-2-(1H-imidazol-1-yl)-1-(benzotriazol-1-yl)ethyl]-1H-indole] | – | – | – | – | – | – | MIC ([1]; Candida albicans, 24 h): 66 ± 6 µM (≈ 27.9 µg/mL); CMI or CI80 Candida albicans (CA980001) ([1]; listed as 46): 26 ± 2 µg/mL; MIC ([2]; Aspergillus fumigatus): > 100 µM; IC50 ([3]; Leishmania mexicana): 14 µg/mL and 35 µM
2 | Fc1ccc(Cn2cc(Cn3ccnc3)c3cccnc32)cc1 [Cpsé 88, 1-(4-Fluorobenzyl)-3-(1H-Imidazol-1ylmethyl)-1H-7-azaindole] | – | – | – | – | – | – | MIC [1, 5]: 0.7 ± 0.01 µM (≈ 0.214 µg/mL); CMI or CI80 Candida albicans (CA980001) ([1]; 24 h at 37° C., MTT, listed as 51): 0.28 ± 0.01 µg/mL; activity of inhibition of Candida albicans (in words) ([1]; summary of Tables 27 to 40): most active; MIC ([2]; Aspergillus fumigatus, Alamar Blue): > 100 µM; IC50 ([3]; Leishmania mexicana, promastigotes, 36 h at 26° C., MTT): 16.6 µM and 6.64 µg/mL
3 | OC(Cn1cncn1)(Cn1cncn1)c1ccc(F)cc1F [Fluconazole, fluconazole, reference compound] | 0.02 µg/mL | – | – | – | – | – | MIC [1, 5]: 0.07 µM (≈ 0.0214 µg/mL); survival at D10 [4]: 100%
4 | Fc1cccc(Cn2cc(Cn3ccnc3)c3ccccc32)c1 [compound 5] | 68 ± 1 μM and 20.76 ± 1 μg/ml | 46 ± 5 μM and 14 ± 1.5 μg/ml | – | – | – | – | activity against Aspergillus fumigatus (in words) [2]: strong activity; CI50 Leishmania mexicana Promastigotes [3, 6]: 9.2 ± 0.7 µg/mL (≈ 30.1 µM); IC50 [3, 6]: 30.4 ± 2.5 µM
5 | Fc1ccc(Cn2cc(Cn3ccnc3)c3ccccc32)c(F)c1 [compound 6] | 48 ± 4 μM and 16 ± 2 μg/ml | 60 ± 2 μM and 19.4 ± 2 μg/ml | – | – | – | – | activity against Aspergillus fumigatus (in words) [2]: strong activity; CI50 Leishmania mexicana Promastigotes [3, 6]: 6 ± 0.5 µg/mL (≈ 18.6 µM); IC50 [3, 6]: 18.5 ± 1.8 µM
6 | Fc1ccccc1Cn1cc(Cn2ccnc2)c2cc(Br)ccc21 [compound 11] | – | – | >100 µM | >100 µM | 18.3 ± 0.6 µg/mL (≈ 47.6 µM) | 47.7 ± 1.6 µM | –
7 | Fc1ccc(Cn2cc(Cn3ccnc3)c3cc(Br)ccc32)cc1 [compound 12] | – | – | >100 µM | >100 µM | 7.9 ± 0.9 µg/mL (≈ 20.6 µM) | 20.6 ± 2.4 µM | –
8 | Clc1ccc(Cn2cc(Cn3ccnc3)c3cc(Cl)ccc32)cc1 [compound 14] | 30 µg/mL | 71 ± 3 μM and 25 ± 1 μg/ml | 85 µM (≈ 30.3 µg/mL) | – | non linear | – | –
9 | Fc1ccc2c(c1)c(Cn1ccnc1)cn2Cc1ccc(Cl)cc1 [compound 15] | 21 ± 1 μM and 7 ± 1 μg/ml | 61 ± 3 μM and 20.73 ± 3 μg/ml | – | – | – | – | activity against Aspergillus fumigatus (in words) [2]: strong activity; CI50 Leishmania mexicana Promastigotes [3, 6]: 5.4 ± 1.6 µg/mL (≈ 15.9 µM); IC50 [3, 6]: 15.9 ± 5 µM
10 | Fc1ccccc1Cn1cc(Cn2cncn2)c2cc(Br)ccc21 [compound 24] | – | – | >100 µM | >100 µM | 30.74 µg/mL (≈ 79.8 µM) | 79.8 µM | –
11 | Fc1ccc(Cn2cc(Cn3cncn3)c3cc(Br)ccc32)cc1 [compound 25] | – | – | >100 µM | >100 µM | 19.38 µg/mL (≈ 50.3 µM) | 50.3 µM | –
12 | CCn1c(C(c2cccc(Cl)c2)n2ccnc2)c(C)c2cc(Br)ccc21 (stereo not drawn) [compound 32] | – | – | – | – | – | < 0.1 µM | CMI or CI80 Candida albicans (CA980001) [1]: 62 ± 1 μM and 27 ± 0.5 μg/mL; CMI or CI80 Aspergillus fumigatus (AF980003) [2]: 66 ± 5 μM and 28 ± 2 μg/mL; activity against Leishmania mexicana (in words) [3]: most active
